Test results published in ChEMBL document CHEMBL1128826, “Heteroatom effect in the PKC inhibitory activities of perhydroazepine analogs of balanol” (Bioorg Med Chem Lett, 1995).

Legend:
[1] = target: Protein kinase C gamma type (Homo sapiens, UniProt P05129); assay: Inhibition of human Protein kinase C gamma
[2] = target: T1, Protein kinase C epsilon type (Homo sapiens, UniProt Q02156); assay: Inhibition of human Protein kinase C epsilon
T1 sequence (Q02156 whole entry): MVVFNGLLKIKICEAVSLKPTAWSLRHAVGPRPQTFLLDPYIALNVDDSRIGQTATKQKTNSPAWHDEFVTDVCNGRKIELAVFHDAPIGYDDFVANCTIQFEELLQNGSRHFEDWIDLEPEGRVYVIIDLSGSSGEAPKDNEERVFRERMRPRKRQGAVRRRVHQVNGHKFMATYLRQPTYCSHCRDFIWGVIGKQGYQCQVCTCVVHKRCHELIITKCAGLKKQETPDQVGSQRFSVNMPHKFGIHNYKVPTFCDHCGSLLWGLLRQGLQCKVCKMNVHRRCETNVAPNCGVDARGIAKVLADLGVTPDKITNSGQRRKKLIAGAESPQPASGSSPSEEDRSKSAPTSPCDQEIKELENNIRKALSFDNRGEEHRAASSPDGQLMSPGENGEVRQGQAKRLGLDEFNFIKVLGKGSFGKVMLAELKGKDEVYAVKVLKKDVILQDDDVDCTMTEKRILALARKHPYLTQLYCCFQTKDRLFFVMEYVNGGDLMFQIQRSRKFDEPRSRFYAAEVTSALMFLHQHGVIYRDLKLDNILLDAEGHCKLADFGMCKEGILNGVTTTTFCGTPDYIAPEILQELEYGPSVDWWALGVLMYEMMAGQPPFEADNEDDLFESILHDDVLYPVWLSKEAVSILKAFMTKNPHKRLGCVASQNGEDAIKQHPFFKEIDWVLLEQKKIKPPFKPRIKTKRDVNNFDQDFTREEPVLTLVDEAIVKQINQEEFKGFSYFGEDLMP

[3] = target: Protein kinase C eta type (Homo sapiens, UniProt P24723); assay: Inhibition of human protein kinase C eta
Sequence of Protein kinase C eta type (P24723 whole entry): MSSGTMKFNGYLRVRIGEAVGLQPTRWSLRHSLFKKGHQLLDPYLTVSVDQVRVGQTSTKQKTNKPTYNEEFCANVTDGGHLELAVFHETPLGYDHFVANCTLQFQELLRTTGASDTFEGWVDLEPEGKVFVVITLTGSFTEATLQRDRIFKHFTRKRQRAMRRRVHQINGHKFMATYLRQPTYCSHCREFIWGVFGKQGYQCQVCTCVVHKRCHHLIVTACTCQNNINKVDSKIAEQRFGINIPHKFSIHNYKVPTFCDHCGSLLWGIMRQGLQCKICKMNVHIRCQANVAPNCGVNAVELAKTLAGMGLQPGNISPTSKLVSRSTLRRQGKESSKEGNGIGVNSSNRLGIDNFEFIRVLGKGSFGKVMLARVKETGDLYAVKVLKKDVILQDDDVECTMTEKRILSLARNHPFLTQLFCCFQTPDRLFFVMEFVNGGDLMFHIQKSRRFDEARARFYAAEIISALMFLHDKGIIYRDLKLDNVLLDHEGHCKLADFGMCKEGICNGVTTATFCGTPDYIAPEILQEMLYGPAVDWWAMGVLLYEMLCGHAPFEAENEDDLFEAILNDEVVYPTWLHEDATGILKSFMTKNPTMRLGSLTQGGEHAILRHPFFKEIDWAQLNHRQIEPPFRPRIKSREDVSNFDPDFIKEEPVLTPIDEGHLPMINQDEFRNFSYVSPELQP

[4] = target: Protein kinase C delta type (Homo sapiens, UniProt Q05655); assay: Inhibition of human Protein kinase C delta
Sequence of Protein kinase C delta type (Q05655 whole entry): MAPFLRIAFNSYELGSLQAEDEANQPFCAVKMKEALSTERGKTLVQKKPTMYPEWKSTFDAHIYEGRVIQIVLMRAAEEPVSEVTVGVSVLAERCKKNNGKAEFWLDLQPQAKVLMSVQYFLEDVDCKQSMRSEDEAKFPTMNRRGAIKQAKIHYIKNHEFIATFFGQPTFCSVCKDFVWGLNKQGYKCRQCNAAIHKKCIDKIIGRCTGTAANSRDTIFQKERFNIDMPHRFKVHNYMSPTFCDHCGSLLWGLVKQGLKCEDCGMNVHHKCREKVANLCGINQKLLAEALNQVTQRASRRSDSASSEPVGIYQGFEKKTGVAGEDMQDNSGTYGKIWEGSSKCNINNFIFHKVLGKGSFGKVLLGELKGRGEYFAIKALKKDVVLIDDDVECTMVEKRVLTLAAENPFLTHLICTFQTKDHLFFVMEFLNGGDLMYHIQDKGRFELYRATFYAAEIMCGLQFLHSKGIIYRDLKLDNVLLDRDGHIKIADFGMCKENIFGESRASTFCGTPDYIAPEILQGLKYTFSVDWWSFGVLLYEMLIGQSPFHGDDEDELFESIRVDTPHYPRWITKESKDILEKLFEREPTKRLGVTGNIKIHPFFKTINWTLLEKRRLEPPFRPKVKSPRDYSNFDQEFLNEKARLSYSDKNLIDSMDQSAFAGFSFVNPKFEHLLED

[5] = target: T2, Protein kinase C beta type (Homo sapiens, UniProt P05771); assay: Inhibition of human Protein kinase C beta 2
T2 sequence (P05771 whole entry): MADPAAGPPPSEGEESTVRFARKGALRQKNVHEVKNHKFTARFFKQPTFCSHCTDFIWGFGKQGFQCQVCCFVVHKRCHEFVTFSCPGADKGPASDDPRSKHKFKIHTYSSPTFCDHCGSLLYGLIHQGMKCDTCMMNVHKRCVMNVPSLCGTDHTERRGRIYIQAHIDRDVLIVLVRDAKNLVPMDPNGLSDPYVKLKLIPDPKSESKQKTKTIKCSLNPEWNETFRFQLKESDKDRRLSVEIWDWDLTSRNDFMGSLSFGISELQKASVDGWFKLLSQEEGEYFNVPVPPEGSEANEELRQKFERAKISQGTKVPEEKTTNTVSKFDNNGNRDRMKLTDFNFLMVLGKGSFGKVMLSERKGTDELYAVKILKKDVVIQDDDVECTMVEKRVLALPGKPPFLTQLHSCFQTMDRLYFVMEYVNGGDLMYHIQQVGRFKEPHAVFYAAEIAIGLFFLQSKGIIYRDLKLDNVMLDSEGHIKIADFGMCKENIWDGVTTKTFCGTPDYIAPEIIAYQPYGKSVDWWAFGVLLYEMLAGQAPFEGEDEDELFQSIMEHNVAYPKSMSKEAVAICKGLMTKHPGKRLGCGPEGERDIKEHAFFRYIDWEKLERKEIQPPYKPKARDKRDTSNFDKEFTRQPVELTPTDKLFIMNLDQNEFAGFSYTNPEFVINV

[6] = target: Protein kinase C alpha type (Homo sapiens, UniProt P17252); assay: Inhibition of human Protein kinase C alpha
[7] = target: T3, Protein kinase C zeta type (Homo sapiens, UniProt Q05513); assay: Inhibition of Protein kinase C zeta
T3 sequence (Q05513 whole entry): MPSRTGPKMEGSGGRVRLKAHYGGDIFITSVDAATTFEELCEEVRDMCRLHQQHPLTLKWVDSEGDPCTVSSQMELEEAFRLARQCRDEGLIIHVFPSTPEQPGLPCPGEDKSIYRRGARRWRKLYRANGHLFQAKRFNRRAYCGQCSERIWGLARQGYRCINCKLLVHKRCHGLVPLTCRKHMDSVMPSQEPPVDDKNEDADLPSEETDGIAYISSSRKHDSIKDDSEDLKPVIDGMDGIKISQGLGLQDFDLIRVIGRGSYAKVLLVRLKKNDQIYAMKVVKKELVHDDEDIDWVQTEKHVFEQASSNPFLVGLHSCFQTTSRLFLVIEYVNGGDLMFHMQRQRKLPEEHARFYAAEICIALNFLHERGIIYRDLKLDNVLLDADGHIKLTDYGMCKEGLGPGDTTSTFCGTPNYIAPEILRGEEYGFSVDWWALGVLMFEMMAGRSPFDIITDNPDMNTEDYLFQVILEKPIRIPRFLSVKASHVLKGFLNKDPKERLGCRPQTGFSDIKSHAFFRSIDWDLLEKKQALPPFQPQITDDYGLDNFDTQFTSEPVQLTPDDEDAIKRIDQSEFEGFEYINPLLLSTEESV

[8] = target: T2, Protein kinase C beta type; assay: Inhibition of human Protein kinase C beta 1

| Structure (SMILES) | IC50 [1] | IC50 [2] | IC50 [3] | IC50 [4] | IC50 [5] | IC50 [6] | IC50 [7] | IC50 [8] |
| --- | --- | --- | --- | --- | --- | --- | --- | --- |
| O=C(N[C@H]1CS(=O)(=O)CCC[C@H]1OC(=O)c1cc(O)c(C(=O)c2c(O)cccc2C(=O)O)c(O)c1)c1ccc(O)cc1 | 4300 nM | 45000 nM | 830 nM | 4000 nM | 3600 nM | 9600 nM | > 150000 nM | 5200 nM |
| O=C(N[C@H]1CSCCC[C@H]1OC(=O)c1cc(O)c(C(=O)c2c(O)cccc2C(=O)O)c(O)c1)c1ccc(O)cc1 | 1000 nM | 5900 nM | 100 nM | 90 nM | 2400 nM | 3300 nM |  | 3800 nM |
| O=C(N[C@H]1COCCC[C@H]1OC(=O)c1cc(O)c(C(=O)c2c(O)cccc2C(=O)O)c(O)c1)c1ccc(O)cc1 | 1000 nM | 16000 nM | 10 nM | 90 nM | 3300 nM | 6700 nM | > 150000 nM | 2500 nM |

Compounds with a lower IC50 [1], results first:

| IC50 [1] | IC50 [2] | IC50 [3] | IC50 [4] | IC50 [5] | IC50 [6] | IC50 [7] | IC50 [8] | Structure (SMILES) |
| --- | --- | --- | --- | --- | --- | --- | --- | --- |
| 60 nM | 280 nM | 60 nM | 90 nM | 430 nM | 270 nM | > 150000 nM | 220 nM | O=C(N[C@H]1CCCCC[C@H]1OC(=O)c1cc(O)c(C(=O)c2c(O)cccc2C(=O)O)c(O)c1)c1ccc(O)cc1 |
| 34 nM |  | 22 nM | 32 nM | 44 nM | 74 nM | 3500 nM | 32 nM | O=C(N[C@H]1CNCCC[C@H]1OC(=O)c1cc(O)c(C(=O)c2c(O)cccc2C(=O)O)c(O)c1)c1ccc(O)cc1 (racemic) |
